Laboratory results reported in patent US7026339B2, “Inhibitors of HCV NS5B polymerase” (priority 2003, dated 2006).
pIC50: −log10 of the molar value.

Tested on: HuH-7 replicon cells 5–15 and 9–13 (HCV replication)
Experiment: Inhibition of viral replication in HuH-7 replicon cells (HCV RNA / GAPDH RNA by multiplex RT-PCR)
Type: cell-based
Details: Hepatitis C virus, 72 h; inhibiting 50% of replication; HuH-7 replicon cells, 3 days; read-out: IC50
Protocol: Compounds were evaluated for inhibition of viral replication according to published procedures (Bartenschlager, R., et. al., Science, 1999, 285, 110) with modifications as follows.
HuH-7 replicon cells 5–15 and 9–13 were cultured in Dulbecco's minimal essential medium (DMEM) containing high glucose and supplemented with 10% fetal bovine serum (FBS), L-glutamine (2 mM), non-essential amino acids (1×), Penicillin (100 IU/mL)/Streptomycin (100 μg/mL) and G418 (Geneticin, 750 μg/mL). Unless otherwise specified, all media components were obtained from Invitrogen. Replicon cell line stocks were maintained as sub-confluent monolayers by passaging every Monday (1:6 split) and Thursday (1:10 split) and incubated at 37° C. with 5% CO2. Tissue culture plates (96-well white clear bottom plates, Corning #3610) were seeded at 7×10^3 cells/well and incubated for 24 hours prior to addition of the compounds.
Compounds in dry powder form were diluted in DMSO (30 mM stock). Serial dilutions of each Compound in DMSO (10 mM–0.1 mM) were performed in a 96-well polypropylene plate using a microtiter format. Culture media (200 μl) was added to the corresponding wells of a sterile 96-well round bottom plate. Diluted compound (2 μl) was added to the corresponding wells of the medial plate (final compound concentrations: 100 μM–1 μM). Culture media was removed from the corresponding wells of the 96-well plate containing the replicon cells and 150 μl diluted compound added. Media containing 1% DMSO and a serially diluted IFN were included on each plate. The cultures were incubated at 37° C. with 5% CO2 for 3 days. Cultures were observed visually for cytotoxicity or compound precipitation prior to RNA extraction described below.
Total cellular RNA was extracted by spin column technology (RNeasy 96, Qiagen) using the vacuum methodology according to the manufacturer's protocol. In brief, culture media was removed and 100 μl RLT lysis buffer containing 0.14M β-mercaptoethanol (β-ME) was added to each well. The plate was kept flat on the laboratory bench and shaken vigorously to lyse the cells. An equal volume of 70% ETOH was mixed with the lysate and added to the corresponding columns of the RNeasy 96-well plate. Vacuum was applied to draw the lysate through the filters. After ventilating the plate, buffer RW1 (1 mL) was drawn through each column. The waste tray was emptied and the filters washed twice with buffer RPE (1 mL/wash). After ventilating the tray, the RNeasy plate was removed and the bottom of the plate struck several times on a stack of paper towels to remove excess wash buffer. The waste tray was removed from the vacuum apparatus and the RNeasy 96-well plate dried by applying vacuum for 10 minutes. Total cellular RNA was eluted from the columns with two washes of 60 μl RNase-free water.
Relative quantitative multiplex RT-PCR was performed using TaqMan (TM) EZ RT Core Reagent kit (Perkin Elmer) according to the manufacturer's protocol (PE Applied Biosystems User Bulletin #2). Primer 061 (NT 61–82) and 139 (NT 139–158) amplifying a short region in the 5′ untranslated region of the HCV genome were utilized at 300 nM final concentrations. Probe #3 (NT 97–119) labeled with FAM reporter dye was utilized at 200 nM final concentration. Pre-developed human GAPDH primers and probe labeled with VIC reporter dye were obtained from PE Applied Biosystems (# 4310884E) and used according to the manufacturer's protocol. TM RT-PCR master mix was prepared containing the above primers/probe for both target RNA. Total cellular RNA (2 μl) was added to the reaction tubes of a 96-well optical plate that corresponded to the wells of the replicon culture plate. The final volume of each reaction was 50 μl. A standard curve was prepared from ten-fold serial dilutions of total cellular RNA extracated from 10^6 replicon cells and eluted in 30 μl RNase-free water. […]

Row | Compound | pIC50
1 | O=C(Cc1ccncc1)N/N=C/c1ccccc1OS(=O)(=O)c1ccc(C(F)(F)F)cc1 [Compound 1, 2-{(E)-[2-(2-pyridin-4-ylacetyl)-hydrazono]methyl}phenyl 4-(trifluoromethyl)benzenesulfonate] | 4.30 to 5.30
2 | O=C(CCc1ccccc1)N/N=C/c1ccccc1OS(=O)(=O)c1ccc(C(F)(F)F)cc1 [Compound 2, 2-{(E)-[2-(3-phenylpropanoyl)-hydrazono]methyl}phenyl 4-(trifluoromethyl)benzenesulfonate] | > 5.30
3 | O=C(Cc1c[nH]c2ccccc12)N/N=C/c1ccccc1OS(=O)(=O)c1ccc(C(F)(F)F)cc1 [Compound 3, 2-((E)-{2-[2-(1H-indol-3-yl)-acetyl]hydrazono}methyl)phenyl 4-(trifluoromethyl)benzene-sulfonate] | > 5.30
4 | O=C(Cc1cccs1)N/N=C/c1ccccc1OS(=O)(=O)c1ccc(C(F)(F)F)cc1 [Compound 4, 2-{(E)-[2-(2-thien-2-ylacetyl)-hydrazono]methyl}phenyl 4-(trifluoromethyl)benzenesulfonate] | > 5.30
5 | O=C(Cc1c[nH]cn1)N/N=C/c1ccccc1OS(=O)(=O)c1ccc(C(F)(F)F)cc1 [Compound 5, 2-((E)-{2-[2-(1H-imidazol-4-yl)acetyl]hydrazono}methyl)phenyl 4-(trifluoromethyl)benzenesulfonate] | > 5.30
6 | O=C(Cc1cccnc1)N/N=C/c1ccccc1OS(=O)(=O)c1ccc(C(F)(F)F)cc1 [Compound 6, 2-{(E)-[2-(2-pyridin-3-ylacetyl)hydrazono]methyl}phenyl 4-(trifluoromethyl)benzenesulfonate] | > 5.30
7 | O=C(Cc1ccc(Cl)cc1)N/N=C/c1ccccc1OS(=O)(=O)c1ccc(C(F)(F)F)cc1 [Compound 7, 2-((E)-{2-[2-(4-chlorophenyl)acetyl]hydrazono}methyl)-phenyl 4-(trifluoromethyl)benzenesulfonate] | > 5.30
8 | O=C(Cc1ccc(F)cc1)N/N=C/c1ccccc1OS(=O)(=O)c1ccc(C(F)(F)F)cc1 [Compound 8, 2-((E)-{2-[2-(4-fluorophenyl)acetyl]hydrazono}methyl)-phenyl 4-(trifluoromethyl)benzenesulfonate] | > 5.30
9 | O=C(Cc1ccc(F)c(Cl)c1)N/N=C/c1ccccc1OS(=O)(=O)c1ccc(C(F)(F)F)cc1 [Compound 9, 2-((E)-{2-[2-(3-chloro-4-fluorophenyl)acetyl]hydrazono}methyl)-phenyl 4-(trifluoromethyl)benzenesulfonate] | > 5.30
10 | O=C(Cc1ccc(F)cc1Cl)N/N=C/c1ccccc1OS(=O)(=O)c1ccc(C(F)(F)F)cc1 [Compound 10, 2-((E)-{2-[2-(2-chloro-4-fluorophenyl)acetyl]hydrazono}methyl)-phenyl 4-(trifluoromethyl)benzenesulfonate] | > 5.30
11 | CN(C)c1ccc(CC(=O)N/N=C/c2ccccc2OS(=O)(=O)c2ccc(C(F)(F)F)cc2)cc1 [Compound 11, 2-[(E)-(2-{2-[4-(dimethylamino)phenyl]acetyl}hydrazono)-methyl]phenyl 4-(trifluoromethyl)benzenesulfonate] | > 5.30
12 | O=C(Cc1c(F)c(F)c(F)c(F)c1F)N/N=C/c1ccccc1OS(=O)(=O)c1ccc(C(F)(F)F)cc1 [Compound 12, 2-((E)-{2-[2-(pentafluorophenyl)acetyl]hydrazono}-methyl)phenyl 4-(trifluoromethyl)benzenesulfonate] | < 4.30
13 | O=C(Cc1ccc(F)c(C(F)(F)F)c1)N/N=C/c1ccccc1OS(=O)(=O)c1ccc(C(F)(F)F)cc1 [Compound 13, 2-[(E)-(2-{2-[4-fluoro-3-(trifluoromethyl)phenyl]acetyl}hydrazono)-methyl]phenyl 4-(trifluoromethyl)benzenesulfonate] | > 5.30
14 | O=C(Cc1ccc(C(F)(F)F)c(F)c1)N/N=C/c1ccccc1OS(=O)(=O)c1ccc(C(F)(F)F)cc1 [Compound 14, 2-[(E)-(2-{2-[3-fluoro-4-(trifluoromethyl)phenyl]acetyl}hydrazono)-methyl]phenyl 4-(trifluoromethyl)benzenesulfonate] | > 5.30
